Measurements published in US6339045B1, “N-(unsubstituted or substituted)-4-substituted-6-(unsubstituted or substituted)phenoxy-2-pyridinecarboxamides or thiocarboxamides, processes for producing the same, and herbicides” (Kureha Kagaku Kogyo Kabushiki Kaisha, priority 1995, dated 2002).

Columns and labels:
Experiment in all cases: Herbicidal effect by foliage and soil treatment
Type in all cases: in vivo
Details in all cases: evaluated after 14 days
[1] = system: ivyleafspeedwell (Veronica hederaefolia)
Outline: (§1)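 Seedlings grown in granular soil in a 19–25 °C greenhouse to the cotyledon–two-leaf stage were sprayed over foliage and soil with compound in Tween 20/water at a set application rate. Growth was scored on a rating scale against untreated plants after 14 days.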

[2] = system: field bindweed (Convolvulus arvensis)
Outline: as §1

[3] = system: redroot pigweed (Amaranthus retroflexus)
Outline: as §1

[4] = system: sicklepod (Cassia obtusifolia)
Outline: as §1

[5] = system: wild chamomile (Matricaria chamomilla)
Outline: as §1

[6] = system: common blackjack (Bidens pilosa)
Outline: as §1

[7] = system: kediock (Sinapis arvensis)
Outline: as §1

[8] = system: cleavers (Galium aparine)
Outline: as §1

[9] = system: common chickweed (Stellaria media)
Outline: as §1

[10] = system: black nightshade (Solanum nigrum)
Outline: as §1

[11] = system: velvetleaf (Abutilon theophrasti)
Outline: as §1

CC(C)NC(=O)c1cccc(Oc2cccc(C(F)(F)F)c2)n1 [control (a)]
herbicidal activity rating, VH (Veronica hederaefolia) ([1]; 10 g ai/10a): 3 (percentage of weeds killed was not less than 40% and less than 60%) | herbicidal activity rating, VH (Veronica hederaefolia) ([1]; 25 g ai/10a): 4 (percentage of weeds killed was not less than 60% and less than 80%) | herbicidal activity rating, VH (Veronica hederaefolia) ([1]; 62.5 g ai/10a): 5 (percentage of weeds killed was not less than 80%) | herbicidal activity rating, CA (Convolvulus arvensis) ([2]; 10 g ai/10a): 2 (percentage of weeds killed was not less than 20% and less than 40%) | herbicidal activity rating, CA (Convolvulus arvensis) ([2]; 25 g ai/10a): 3 (percentage of weeds killed was not less than 40% and less than 60%) | herbicidal activity rating, CA (Convolvulus arvensis) ([2]; 62.5 g ai/10a): 3 (percentage of weeds killed was not less than 40% and less than 60%) | herbicidal activity rating, AR (Amaranthus retroflexus) ([3]; 10 g ai/10a): 3 (percentage of weeds killed was not less than 40% and less than 60%) | herbicidal activity rating, AR (Amaranthus retroflexus) ([3]; 25 g ai/10a): 3 (percentage of weeds killed was not less than 40% and less than 60%) | herbicidal activity rating, AR (Amaranthus retroflexus) ([3]; 62.5 g ai/10a): 4 (percentage of weeds killed was not less than 60% and less than 80%) | herbicidal activity rating, CO (Cassia obtusifolia) ([4]; 10 g ai/10a): 1 (percentage of weeds killed was less than 20%) | herbicidal activity rating, CO (Cassia obtusifolia) ([4]; 25 g ai/10a): 2 (percentage of weeds killed was not less than 20% and less than 40%) | herbicidal activity rating, CO (Cassia obtusifolia) ([4]; 62.5 g ai/10a): 3 (percentage of weeds killed was not less than 40% and less than 60%) | herbicidal activity rating, MC (Matricaria chamomilla) ([5]; 10 g ai/10a): 1 (percentage of weeds killed was less than 20%) | herbicidal activity rating, MC (Matricaria chamomilla) ([5]; 25 g ai/10a): 1 (percentage of weeds killed was less than 20%) | herbicidal activity rating, MC (Matricaria chamomilla) ([5]; 62.5 g ai/10a): 1 (percentage of weeds killed was less than 20%) | herbicidal activity rating, BP (Bidens pilosa) ([6]; 10 g ai/10a): 1 (percentage of weeds killed was less than 20%) | herbicidal activity rating, BP (Bidens pilosa) ([6]; 25 g ai/10a): 1 (percentage of weeds killed was less than 20%) | herbicidal activity rating, BP (Bidens pilosa) ([6]; 62.5 g ai/10a): 1 (percentage of weeds killed was less than 20%) | herbicidal activity rating, SA (Sinapis arvensis) ([7]; 10 g ai/10a): 3 (percentage of weeds killed was not less than 40% and less than 60%) | herbicidal activity rating, SA (Sinapis arvensis) ([7]; 25 g ai/10a): 4 (percentage of weeds killed was not less than 60% and less than 80%) | herbicidal activity rating, SA (Sinapis arvensis) ([7]; 62.5 g ai/10a): 5 (percentage of weeds killed was not less than 80%) | herbicidal activity rating, GA (Galium aparine) ([8]; 10 g ai/10a): 2 (percentage of weeds killed was not less than 20% and less than 40%) | herbicidal activity rating, GA (Galium aparine) ([8]; 25 g ai/10a): 3 (percentage of weeds killed was not less than 40% and less than 60%) | herbicidal activity rating, GA (Galium aparine) ([8]; 62.5 g ai/10a): 4 (percentage of weeds killed was not less than 60% and less than 80%) | herbicidal activity rating, SM (Stellaria media) ([9]; 10 g ai/10a): 1 (percentage of weeds killed was less than 20%) | herbicidal activity rating, SM (Stellaria media) ([9]; 25 g ai/10a): 1 (percentage of weeds killed was less than 20%) | herbicidal activity rating, SM (Stellaria media) ([9]; 62.5 g ai/10a): 1 (percentage of weeds killed was less than 20%) | herbicidal activity rating, SN (Solanum nigrum) ([10]; 10 g ai/10a): 4 (percentage of weeds killed was not less than 60% and less than 80%) | herbicidal activity rating, SN (Solanum nigrum) ([10]; 25 g ai/10a): 4 (percentage of weeds killed was not less than 60% and less than 80%) | herbicidal activity rating, SN (Solanum nigrum) ([10]; 62.5 g ai/10a): 5 (percentage of weeds killed was not less than 80%) | herbicidal activity rating, AT (Abutilon theophrasti) ([11]; 10 g ai/10a): 2 (percentage of weeds killed was not less than 20% and less than 40%) | herbicidal activity rating, AT (Abutilon theophrasti) ([11]; 25 g ai/10a): 3 (percentage of weeds killed was not less than 40% and less than 60%) | herbicidal activity rating, AT (Abutilon theophrasti) ([11]; 62.5 g ai/10a): 3 (percentage of weeds killed was not less than 40% and less than 60%)

COc1cc(Oc2cccc(C(F)(F)F)c2)nc(C(=O)NCCSC)c1 [Compound I-62]
herbicidal activity rating, VH (Veronica hederaefolia) ([1]; 10 g ai/10a): 5 (percentage of weeds killed was not less than 80%) | herbicidal activity rating, CA (Convolvulus arvensis) ([2]; 10 g ai/10a): 4 (percentage of weeds killed was not less than 60% and less than 80%) | herbicidal activity rating, AR (Amaranthus retroflexus) ([3]; 10 g ai/10a): 5 (percentage of weeds killed was not less than 80%) | herbicidal activity rating, CO (Cassia obtusifolia) ([4]; 10 g ai/10a): 5 (percentage of weeds killed was not less than 80%) | herbicidal activity rating, MC (Matricaria chamomilla) ([5]; 10 g ai/10a): 4 (percentage of weeds killed was not less than 60% and less than 80%) | herbicidal activity rating, BP (Bidens pilosa) ([6]; 10 g ai/10a): 4 (percentage of weeds killed was not less than 60% and less than 80%) | herbicidal activity rating, SA (Sinapis arvensis) ([7]; 10 g ai/10a): 5 (percentage of weeds killed was not less than 80%) | herbicidal activity rating, GA (Galium aparine) ([8]; 10 g ai/10a): 5 (percentage of weeds killed was not less than 80%) | herbicidal activity rating, SM (Stellaria media) ([9]; 10 g ai/10a): 5 (percentage of weeds killed was not less than 80%) | herbicidal activity rating, SN (Solanum nigrum) ([10]; 10 g ai/10a): 5 (percentage of weeds killed was not less than 80%) | herbicidal activity rating, AT (Abutilon theophrasti) ([11]; 10 g ai/10a): 3 (percentage of weeds killed was not less than 40% and less than 60%)

CCC(C)NC(=O)c1cc(OC)cc(Oc2cccc(C(F)(F)F)c2)n1 (stereo not shown) [Compound I-73]
herbicidal activity rating, VH (Veronica hederaefolia) ([1]; 10 g ai/10a): 5 (percentage of weeds killed was not less than 80%) | herbicidal activity rating, CA (Convolvulus arvensis) ([2]; 10 g ai/10a): 5 (percentage of weeds killed was not less than 80%) | herbicidal activity rating, AR (Amaranthus retroflexus) ([3]; 10 g ai/10a): 5 (percentage of weeds killed was not less than 80%) | herbicidal activity rating, CO (Cassia obtusifolia) ([4]; 10 g ai/10a): 5 (percentage of weeds killed was not less than 80%) | herbicidal activity rating, MC (Matricaria chamomilla) ([5]; 10 g ai/10a): 4 (percentage of weeds killed was not less than 60% and less than 80%) | herbicidal activity rating, BP (Bidens pilosa) ([6]; 10 g ai/10a): 4 (percentage of weeds killed was not less than 60% and less than 80%) | herbicidal activity rating, SA (Sinapis arvensis) ([7]; 10 g ai/10a): 5 (percentage of weeds killed was not less than 80%) | herbicidal activity rating, GA (Galium aparine) ([8]; 10 g ai/10a): 5 (percentage of weeds killed was not less than 80%) | herbicidal activity rating, SM (Stellaria media) ([9]; 10 g ai/10a): 5 (percentage of weeds killed was not less than 80%) | herbicidal activity rating, SN (Solanum nigrum) ([10]; 10 g ai/10a): 5 (percentage of weeds killed was not less than 80%) | herbicidal activity rating, AT (Abutilon theophrasti) ([11]; 10 g ai/10a): 5 (percentage of weeds killed was not less than 80%)

COc1cc(Oc2cccc(C(F)(F)F)c2)nc(C(=O)NC2CCCC2)c1 [Compound I-50]
herbicidal activity rating, VH (Veronica hederaefolia) ([1]; 10 g ai/10a): 5 (percentage of weeds killed was not less than 80%) | herbicidal activity rating, CA (Convolvulus arvensis) ([2]; 10 g ai/10a): 5 (percentage of weeds killed was not less than 80%) | herbicidal activity rating, AR (Amaranthus retroflexus) ([3]; 10 g ai/10a): 5 (percentage of weeds killed was not less than 80%) | herbicidal activity rating, CO (Cassia obtusifolia) ([4]; 10 g ai/10a): 4 (percentage of weeds killed was not less than 60% and less than 80%) | herbicidal activity rating, MC (Matricaria chamomilla) ([5]; 10 g ai/10a): 5 (percentage of weeds killed was not less than 80%) | herbicidal activity rating, BP (Bidens pilosa) ([6]; 10 g ai/10a): 5 (percentage of weeds killed was not less than 80%) | herbicidal activity rating, SA (Sinapis arvensis) ([7]; 10 g ai/10a): 5 (percentage of weeds killed was not less than 80%) | herbicidal activity rating, GA (Galium aparine) ([8]; 10 g ai/10a): 5 (percentage of weeds killed was not less than 80%) | herbicidal activity rating, SM (Stellaria media) ([9]; 10 g ai/10a): 5 (percentage of weeds killed was not less than 80%) | herbicidal activity rating, SN (Solanum nigrum) ([10]; 10 g ai/10a): 5 (percentage of weeds killed was not less than 80%) | herbicidal activity rating, AT (Abutilon theophrasti) ([11]; 10 g ai/10a): 4 (percentage of weeds killed was not less than 60% and less than 80%)

COc1cc(Oc2cccc(C(F)(F)F)c2)nc(C(=O)NC(OC)C(F)(F)F)c1 (stereo not shown) [Compound I-88, N-(1-methoxy-2,2,2-trifluoroethyl)-4-methoxy-6-{3-(trifluoromethyl)phenoxy}-2-pyridine carboxamide]
herbicidal activity rating, VH (Veronica hederaefolia) ([1]; 10 g ai/10a): 5 (percentage of weeds killed was not less than 80%) | herbicidal activity rating, CA (Convolvulus arvensis) ([2]; 10 g ai/10a): 5 (percentage of weeds killed was not less than 80%) | herbicidal activity rating, AR (Amaranthus retroflexus) ([3]; 10 g ai/10a): 5 (percentage of weeds killed was not less than 80%) | herbicidal activity rating, CO (Cassia obtusifolia) ([4]; 10 g ai/10a): 5 (percentage of weeds killed was not less than 80%) | herbicidal activity rating, MC (Matricaria chamomilla) ([5]; 10 g ai/10a): 2 (percentage of weeds killed was not less than 20% and less than 40%) | herbicidal activity rating, BP (Bidens pilosa) ([6]; 10 g ai/10a): 3 (percentage of weeds killed was not less than 40% and less than 60%) | herbicidal activity rating, SA (Sinapis arvensis) ([7]; 10 g ai/10a): 5 (percentage of weeds killed was not less than 80%) | herbicidal activity rating, GA (Galium aparine) ([8]; 10 g ai/10a): 5 (percentage of weeds killed was not less than 80%) | herbicidal activity rating, SM (Stellaria media) ([9]; 10 g ai/10a): 5 (percentage of weeds killed was not less than 80%) | herbicidal activity rating, SN (Solanum nigrum) ([10]; 10 g ai/10a): 5 (percentage of weeds killed was not less than 80%) | herbicidal activity rating, AT (Abutilon theophrasti) ([11]; 10 g ai/10a): 5 (percentage of weeds killed was not less than 80%)

COc1cc(Oc2cccc(OC(F)(F)F)c2)nc(C(=O)NC(C)C)c1 [Compound I-39]
herbicidal activity rating, VH (Veronica hederaefolia) ([1]; 10 g ai/10a): 5 (percentage of weeds killed was not less than 80%) | herbicidal activity rating, CA (Convolvulus arvensis) ([2]; 10 g ai/10a): 5 (percentage of weeds killed was not less than 80%) | herbicidal activity rating, AR (Amaranthus retroflexus) ([3]; 10 g ai/10a): 5 (percentage of weeds killed was not less than 80%) | herbicidal activity rating, CO (Cassia obtusifolia) ([4]; 10 g ai/10a): 5 (percentage of weeds killed was not less than 80%) | herbicidal activity rating, MC (Matricaria chamomilla) ([5]; 10 g ai/10a): 4 (percentage of weeds killed was not less than 60% and less than 80%) | herbicidal activity rating, BP (Bidens pilosa) ([6]; 10 g ai/10a): 3 (percentage of weeds killed was not less than 40% and less than 60%) | herbicidal activity rating, SA (Sinapis arvensis) ([7]; 10 g ai/10a): 5 (percentage of weeds killed was not less than 80%) | herbicidal activity rating, GA (Galium aparine) ([8]; 10 g ai/10a): 5 (percentage of weeds killed was not less than 80%) | herbicidal activity rating, SM (Stellaria media) ([9]; 10 g ai/10a): 5 (percentage of weeds killed was not less than 80%) | herbicidal activity rating, SN (Solanum nigrum) ([10]; 10 g ai/10a): 5 (percentage of weeds killed was not less than 80%) | herbicidal activity rating, AT (Abutilon theophrasti) ([11]; 10 g ai/10a): 5 (percentage of weeds killed was not less than 80%)
